This passage reports inhibition results from US5567722A, “Cyanoguanidines as K-channel blockers” (The Upjohn Company, priority 1995, dated 1996).

In one test the test system is K+ channel of rabbit mesenteric artery (RMA). The experiment in a line: K+ channel antagonism: inhibition of pinacidil-induced relaxation of norepinephrine-contracted rabbit mesenteric artery (RMA) rings. The format is cell-based. As to conditions: Oryctolagus cuniculus, 0.25 h; Table III; 5 μM; inhibition of relaxation by pinacidil 1 μM at 15 min; mean ± sem (number of rings); >=65% considered active, <20% inactive; read-out: RMA K+ Channel Antagonism % I at 5 μM. How it is done:
The results for potassium channel blocking were obtained by using isolated rabbit mesenteric artery (RMA) procedures. Norepinephrine (5 μM) was used to contract the RMA rings twice, with an hour separating the two contractions. During this hour the tissues equilibrated in physiological salt solution at a resting tension of 1 gram. Upon the plateau of the second contraction 1 μM pinacidil was added to all tissues and the resulting relaxation time course was studied for thirty minutes. […] By studying the ability of the test compounds to inhibit this pinacidil-induced relaxation, the degree of potassium antagonism could be determined. The compounds were applied to the tissues for one hour between the two contractions and the pinacidil-induced relaxation was studied in the continuing presence of the compounds. Thus, the total time of pretreatment with the test compound was 75 minutes before the addition of pinacidil. […]
Data for K^+ channel antagonist activity on rabbit mesenteric artery (RMA) and natriuretic efficacy after […] (IP) administration to rats are collected in Tables III and IV. It was known, for example, that a compound where both methyl groups on the benzylic carbon of Example 9 had been removed was a weak PCO rather than a K^+ channel antagonist. Similarly a compound in which the phenyl was attached directly to the guanidine nitrogen was also a K^+ channel agonist.
^a This is a measure of a compound's ability to inhibit the relaxatio
of norepinephrine (5 μM) contracted rabbit mesenteric artery rings by
pinacidil (1 μM). It is expressed as percent inhibition (mean ± sem
at an inhibitor concentration of 5 μM. Compounds with 65% or g greater
inhibition at 5 μM are considered to be active, with 2065\% inhibition
In the case of `Cc1cccc(C(C)NC(=NC#N)Nc2cccnc2)c1` (stereo not shown) [Compound 15], the inhibition at 5 µM was determined as 82 ± 3.9%.
The same measure, in the same setting: with `N#CN=C(Nc1cccnc1)NC1(c2ccccc2)CC=CC1` [Compound 3, N"-Cyano-N'-(1-phenylcyclopent-3-enyl)-N-(3-pyridyl)guanidine] the figure was 91%; with `N#CN=C(Nc1cccnc1)NC(c1ccccc1)C1CCCC1` (stereo not shown) [Compound 18], 88.1 ± 2%.
For the compound `C[C@@H](NC(=NC#N)Nc1cccnc1)c1ccccc1` [Compound 1, (R)-N"-Cyano-N-(3-pyridyl)-N'-(1-phenyl)ethylguanidine], the inhibition at 5 µM turned out to be 86.3 ± 5%.
As for `COCC(NC(=NC#N)Nc1cccnc1)c1ccccc1` (stereo not shown) [Compound 16], the inhibition at 5 µM is 51.1 ± 11.6%.
On the same count and under the same terms, with `N#CN=C(Nc1cccnc1)NC(c1ccccc1)C1CCC1` (stereo not shown) [Compound 19] the figure was 96 ± 2.1%; with `CCCC(NC(=NC#N)Nc1cccnc1)c1ccccc1` (stereo not shown) [Compound 28], 85.2 ± 4.8%.
Still for that read-out and setting: next, `Cc1ccccc1C(C)NC(=NC#N)Nc1cccnc1` (stereo not shown) [Compound 14]: 58.7 ± 8.3%; `N#CN=C(Nc1cccnc1)N[C@H](CO)c1ccccc1` [Compound 27]: 92.5 ± 3.1%.
The same measure, in the same setting: next, `CC(NC(=NC#N)Nc1cccnc1)c1cccc(C(F)(F)F)c1` (stereo not shown) [Compound 21]: 85.3 ± 3.2%; `CC(NC(=NC#N)Nc1cccnc1)c1cccc(Cl)c1` (stereo not shown) [Compound 25]: 89.9 ± 0.1%; `CC(NC(=NC#N)Nc1cccnc1)c1cc(Cl)ccc1Cl` (stereo not shown) [Compound 24]: 86.9 ± 4%.
Regarding `CC(NC(=NC#N)Nc1cccnc1)c1ccccc1` (racemic) [Compound 7, N"-Cyano-N-(3-pyridyl)-N'-(1-phenyl)ethylguanidine], the inhibition at 5 µM was determined as 65.3 ± 10.2%.
Still for that read-out and setting: next, `CC(NC(=NC#N)Nc1cccnc1)c1ccc(Cl)c(Cl)c1` (stereo not shown) [Compound 23]: 90.8 ± 2.8%.
In the case of `CC[C@H](NC(=NC#N)Nc1cccnc1)c1ccccc1` [Compound 20], the inhibition at 5 µM came to 13.9 ± 7.2%.
`CC[C@@H](NC(=NC#N)Nc1cccnc1)c1ccccc1` [Compound 22, (R) N"-Cyano-N-(3-pyridyl)-N'-(1-phenylpropyl)guanidine]: the inhibition at 5 µM was 89 ± 3.2%.
On the same count and under the same terms, with `N#CN=C(Nc1cccnc1)NC1(c2ccccc2)CCCCC1` [Compound 10] the figure was 85.5 ± 2.2%; with `CC(C)(NC(=NC#N)Nc1cccnc1)c1ccccc1` [Compound 9], 89.5 ± 3.6%; with `CCC(NC(=NC#N)Nc1cccnc1)c1ccccc1` (stereo not shown) [Compound 2, N"-Cyano-N-(3-pyridyl)-N'-(1-phenyl)propylguanidine], 78.8 ± 3.9%.
The same measure, in the same setting: with `N#CN=C(Nc1cccnc1)NC(c1ccccc1)C1CC1` (stereo not shown) [Compound 17, N"-Cyano-N-(3-pyridyl)-N'-phenylcyclopropylmethylguanidine] the figure was 93.3 ± 2.2%; with `CC(C)C(NC(=NC#N)Nc1cccnc1)c1ccccc1` (stereo not shown) [Compound 12], 85.5 ± 0.6%.
Still for that read-out and setting: next, `N#CN=C(Nc1cccnc1)NC1(c2ccccc2)CCCC1` [Compound 11]: 90.4 ± 2.3%; `CC(C)(C)C(NC(=NC#N)Nc1cccnc1)c1ccccc1` (stereo not shown) [Compound 13]: 83.2 ± 12%; `C[C@H](NC(=NC#N)Nc1cccnc1)c1ccccc1` [Compound 8]: 22.1 ± 21.2%.
In the case of `CC(NC(=NC#N)Nc1cccnc1)c1ccccc1Cl` (stereo not shown) [Compound 26], the inhibition at 5 µM stood at 74.7 ± 2.7%.
As to `N#CN=C(Nc1cccnc1)N[C@@H](CO)c1ccccc1` [Compound 4, (R)-N"-Cyano-N'-(2-hydroxy-1-phenylethyl)-N-(3-pyridyl)guanidine], the inhibition at 5 µM worked out at 2.6 ± 1.7%.

The same test, now with this note: Oryctolagus cuniculus; Table III footnote; 0.1 μM; read-out: RMA K+ channel antagonism, Percent inhibition at 0.1 μM.
In the case of `CC[C@@H](NC(=NC#N)Nc1cccnc1)c1ccccc1` [Compound 22, (R) N"-Cyano-N-(3-pyridyl)-N'-(1-phenylpropyl)guanidine], the inhibition at 0.1 µM was 5 ± 2%.

Still in this test, the particulars now being: Oryctolagus cuniculus; Table III footnote; 0.25 μM; read-out: RMA K+ channel antagonism, Percent inhibition at 0.25 μM.
As to `CC[C@@H](NC(=NC#N)Nc1cccnc1)c1ccccc1` [Compound 22, (R) N"-Cyano-N-(3-pyridyl)-N'-(1-phenylpropyl)guanidine], the inhibition at 0.25 µM came to 52 ± 1%.

Still in this test, the particulars now being: Oryctolagus cuniculus; Table III footnote; 0.5 μM; read-out: RMA K+ channel antagonism, Percent inhibition at 0.5 μM.
For the compound `CC[C@@H](NC(=NC#N)Nc1cccnc1)c1ccccc1` [Compound 22, (R) N"-Cyano-N-(3-pyridyl)-N'-(1-phenylpropyl)guanidine], the inhibition at 0.5 µM was found to be 81.5 ± 5.9%.
On the same count and under the same terms, with `CC(C)C(NC(=NC#N)Nc1cccnc1)c1ccccc1` (stereo not shown) [Compound 12] the figure was 43.6%; with `N#CN=C(Nc1cccnc1)NC1(c2ccccc2)CCCC1` [Compound 11], 78.8 ± 4.4%; with `CC(C)(C)C(NC(=NC#N)Nc1cccnc1)c1ccccc1` (stereo not shown) [Compound 13], 82 ± 1.8%.

The same test, now with this note: Oryctolagus cuniculus; Table III footnote; 1 μM; read-out: RMA K+ channel antagonism, Percent inhibition at 1 μM.
As for `C[C@@H](NC(=NC#N)Nc1cccnc1)c1ccccc1` [Compound 1, (R)-N"-Cyano-N-(3-pyridyl)-N'-(1-phenyl)ethylguanidine], the inhibition at 1 µM turned out to be 17.1%.
On the same count and under the same terms, next, `CCC(NC(=NC#N)Nc1cccnc1)c1ccccc1` (stereo not shown) [Compound 2, N"-Cyano-N-(3-pyridyl)-N'-(1-phenyl)propylguanidine]: 25.6 ± 17.2%; `CC(C)C(NC(=NC#N)Nc1cccnc1)c1ccccc1` (stereo not shown) [Compound 12]: 78.2 ± 1.9%.

The test is the same for the next values; noted with them: Oryctolagus cuniculus; Table III footnote; 2.5 μM; read-out: RMA K+ channel antagonism, Percent inhibition at 2.5 μM.
Take `C[C@@H](NC(=NC#N)Nc1cccnc1)c1ccccc1` [Compound 1, (R)-N"-Cyano-N-(3-pyridyl)-N'-(1-phenyl)ethylguanidine]: the inhibition at 2.5 µM came out at 88.9 ± 11.2%.

The test is the same for the next values; noted with them: Oryctolagus cuniculus; Table IV; 0.05 μM; lowest concentration giving >20% inhibition or lowest tested; read-out: RMA K+ Channel Antagonism % I (conc. μM).
As to `N#CN=C(Nc1cccnc1)NC1(c2cccc(F)c2F)CCC1` [Compound 48], the inhibition at 0.05 µM came out at 45%.
The same measure, in the same setting: with `N#CN=C(Nc1cccnc1)NC1(c2cccc(Cl)c2F)CCC1` [Compound 32] the figure was 66%; with `N#CN=C(Nc1cccnc1)NC1(c2cccc(F)c2)CCC1` [Compound 42], 50%.
Take `N#CN=C(Nc1cccnc1)NC1(c2cccc(Br)c2)CCC1` [Compound 31]: the inhibition at 0.05 µM turned out to be 50%.
Still for that read-out and setting: with `N#CN=C(Nc1cccnc1)NC1(c2cccc(Cl)c2)CCC1` [Compound 45, N'-[1-(3-Chlorophenyl)cyclobutyl]-N"-cyano-N-(3-pyridyl)guanidine] the figure was 91%; with `N#CN=C(Nc1ccc(N)nc1)NC1(c2cccc(F)c2)CCC1` [Compound 47], 79%; with `CCC(NC(=NC#N)Nc1cccnc1)c1ccccc1F` (stereo not shown) [Compound 43], 30%.

The test is the same for the next values; noted with them: Oryctolagus cuniculus; Table IV; 0.5 μM; lowest concentration giving >20% inhibition or lowest tested; read-out: RMA K+ Channel Antagonism % I (conc. μM).
On to `CCC(NC(=NC#N)Nc1cccnc1)c1cccc(Cl)c1` (stereo not shown) [Compound 52], for which the inhibition at 0.5 µM is 94%.
The same measure, in the same setting: next, `CC(NC(=NC#N)Nc1cccnc1)c1cccc(F)c1F` (stereo not shown) [Compound 58]: 92.1%; `CC(NC(=NC#N)Nc1cccnc1)c1cc(F)cc(F)c1` (stereo not shown) [Compound 40]: 55.5%.
On the same count and under the same terms, with `N#CN=C(Nc1cccnc1)NC1(c2ccccc2)CCC1` [Compound 51, N"-Cyano-N-(3-pyridyl)-N'-(1-phenylcyclobutyl)guanidine] the figure was 82.9%; with `CCC(NC(=NC#N)Nc1cccnc1)c1cccc(Br)c1` (stereo not shown) [Compound 39], 87.2%.
On the same count and under the same terms, with `N#CN=C(Nc1ccc(N)nc1)NC1(c2ccccc2)CCC1` [Compound 46, N"-Cyano-N-(6-amino-3-pyridyl)-N'-(1-phenylcyclobutyl)guanidine] the figure was 45%.

The same test, now with this note: Oryctolagus cuniculus; Table IV; 1 μM; lowest concentration giving >20% inhibition or lowest tested; read-out: RMA K+ Channel Antagonism % I (conc. μM).
In the case of `C[C@@H](NC(=NC#N)Nc1ccc(Cl)nc1)c1ccccc1` [Compound 34], the inhibition at 1 µM is 49.5%.

Staying with this test, now noted: Oryctolagus cuniculus; Table IV; 5 μM; lowest concentration giving >20% inhibition or lowest tested; read-out: RMA K+ Channel Antagonism % I (conc. μM).
As to `CCC(NC(=NC#N)Nc1ccc[n+]([O-])c1)c1ccccc1` (stereo not shown) [Compound 54, N"-Cyano-N'-(1-phenylpropyl)-N-(3-pyridyl)guanidine, pyridine N-oxide], the inhibition at 5 µM came out at 15.4%.
On the same count and under the same terms, next, `CC[C@@H](NC(=NC#N)Nc1ccc(N)nc1)c1ccccc1` [Compound 44, (R)-N-(6-Amino-3-pyridyl)-N"-cyano-N'-(1-phenylpropyl)guanidine]: 60%; `CNc1ccc(NC(=NC#N)NC(C)c2ccccc2)cn1` (stereo not shown) [Compound 29]: 63.4%; `COCCCNc1ccc(NC(=NC#N)N[C@H](C)c2ccccc2)cn1` [Compound 57]: 7.8%.
As to `CN(C)c1ccc(NC(=NC#N)N[C@H](CO)c2ccccc2)cn1` [Compound 37], the inhibition at 5 µM turned out to be 6.6%.
Take `CCN(CC)c1ccc(NC(=NC#N)N[C@H](C)c2ccccc2)cn1` [Compound 33]: the inhibition at 5 µM came out at 10.8%.
Still for that read-out and setting: with `CCC(NC(=NC#N)Nc1cccnc1)c1cccc(I)c1` (stereo not shown) [Compound 41] the figure was 90.1%.
The same measure, in the same setting: next, `C[C@@H](NC(=NC#N)Nc1ccc[n+]([O-])c1)c1ccccc1` [Compound 55, (R)-N"-Cyano-N'-(1-phenylethyl)-N-(3-pyridyl)guanidine, pyridine N-oxide]: 16.3%; `CCC(NC(=NC#N)Nc1ccc(NC(C)=O)nc1)c1ccccc1` (stereo not shown) [Compound 30]: 0%.
Same read-out and setting: next, `N#CN=C(Nc1cccnc1)NC1(c2ccccc2)CC1` [Compound 63]: 86%; `CCNc1ccc(NC(=NC#N)N[C@H](C)c2ccccc2)cn1` [Compound 56]: 19.1%.
Turning to `CC[C@@H](NC(=NC#N)Nc1ccc(N(C)C)nc1)c1ccccc1` [Compound 53, (R)-N"-Cyano-N'-(1-phenylpropyl)-N-[6-(dimethylamino)-3-pyridyl]guanidine], the inhibition at 5 µM was 4.1%.
The same measure, in the same setting: next, `C[C@@H](NC(=NC#N)Nc1ccc(N(C)C)nc1)c1ccccc1` [Compound 35]: 10.6%; `CC(C)Nc1ccc(NC(=NC#N)N[C@H](C)c2ccccc2)cn1` [Compound 59]: 8.5%.
